Data published in paper PMC12557365 (Journal of Medicinal Chemistry, 2025).
Like-named read-outs stand apart in the source and are kept apart here.

What was measured:
[1] = tested on: SARS-CoV-2 hCoV-19/Japan/TY/WK-521 strain; assay: microbe, parasite or virus in culture; assay type: cell-based; settings: Severe acute respiratory syndrome coronavirus 2, HEK-293T, read-out: HEK 293T-AT EC50
in vitro [2] = settings: both, human, microsomes
in vitro [3] = settings: male, rat, microsomes
SARS-CoV-2 3CL^pro = SARS-CoV-2 3CL^pro (Severe acute respiratory syndrome coronavirus 2, UniProt P0DTD1); assay: biochemical; assay type: biochemical
in vivo [4] = settings: female, cynomolgus monkey, iv, 0.1 mg/kg
in vivo [5] = settings: male, Sprague-Dawley, rat
in vitro [6] = settings: pig, LLC-PK1
in vivo [7] = settings: male, beagle, dog, iv, 0.1 mg/kg
SARS-CoV-2 = assay: microbe, parasite or virus in culture; assay type: cell-based; settings: Severe acute respiratory syndrome coronavirus 2, A549
[8] = tested on: SARS-CoV-2 Omicron strains; assay: microbe, parasite or virus in culture; assay type: cell-based; settings: Severe acute respiratory syndrome coronavirus 2, Epithelial cell
HCoV-OC43 = assay: microbe, parasite or virus in culture; assay type: cell-based; settings: Betacoronavirus 1, OC43, MRC5, read-out: EC50 HCoV-OC43
P-gp [9] = molecular target: T1, P-gp (Homo sapiens, UniProt P08183); settings: LLC-PK1
T1 sequence (P08183 whole entry): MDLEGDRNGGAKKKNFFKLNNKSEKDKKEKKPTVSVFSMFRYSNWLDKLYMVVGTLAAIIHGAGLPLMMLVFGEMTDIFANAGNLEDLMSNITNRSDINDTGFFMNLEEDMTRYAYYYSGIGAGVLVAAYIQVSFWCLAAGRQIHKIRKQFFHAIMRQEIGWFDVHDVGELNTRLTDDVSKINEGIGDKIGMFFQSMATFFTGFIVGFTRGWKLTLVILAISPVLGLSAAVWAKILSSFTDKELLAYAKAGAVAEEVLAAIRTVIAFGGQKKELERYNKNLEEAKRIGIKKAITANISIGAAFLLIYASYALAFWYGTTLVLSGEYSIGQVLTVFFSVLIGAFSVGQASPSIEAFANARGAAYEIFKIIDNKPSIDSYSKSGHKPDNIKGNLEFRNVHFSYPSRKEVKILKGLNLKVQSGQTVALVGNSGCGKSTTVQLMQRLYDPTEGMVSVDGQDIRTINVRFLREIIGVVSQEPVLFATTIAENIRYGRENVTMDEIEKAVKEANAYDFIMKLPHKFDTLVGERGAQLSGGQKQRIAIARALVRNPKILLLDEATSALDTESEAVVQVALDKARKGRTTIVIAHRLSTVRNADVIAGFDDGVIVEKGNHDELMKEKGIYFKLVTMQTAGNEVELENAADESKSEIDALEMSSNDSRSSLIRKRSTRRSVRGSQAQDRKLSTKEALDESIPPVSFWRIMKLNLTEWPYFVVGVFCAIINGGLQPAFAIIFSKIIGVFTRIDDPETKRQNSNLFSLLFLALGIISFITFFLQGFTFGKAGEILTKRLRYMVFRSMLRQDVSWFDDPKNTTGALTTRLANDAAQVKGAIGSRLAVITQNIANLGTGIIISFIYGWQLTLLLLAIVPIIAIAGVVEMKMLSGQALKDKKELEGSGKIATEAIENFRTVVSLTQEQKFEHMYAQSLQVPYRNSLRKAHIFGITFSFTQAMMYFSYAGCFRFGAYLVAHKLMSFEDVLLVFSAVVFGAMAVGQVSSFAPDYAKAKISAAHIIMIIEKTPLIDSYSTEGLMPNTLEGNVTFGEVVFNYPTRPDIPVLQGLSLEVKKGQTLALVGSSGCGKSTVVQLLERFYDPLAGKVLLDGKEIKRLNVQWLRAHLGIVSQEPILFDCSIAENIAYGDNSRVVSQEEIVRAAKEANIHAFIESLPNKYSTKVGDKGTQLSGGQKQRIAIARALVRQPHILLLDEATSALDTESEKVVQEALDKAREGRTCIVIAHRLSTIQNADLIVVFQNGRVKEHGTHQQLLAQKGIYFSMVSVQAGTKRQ

HCoV-229E = assay: microbe, parasite or virus in culture; assay type: cell-based; settings: Human coronavirus 229E, MRC5, read-out: EC50 HCoV-229E
P-gp [10] = molecular target: T1, P-gp; assay: in vitro; settings: LLC-PK1
[11] = read-out: SARS-CoV-2 3CL^pro IC50

SMILES	EC50 [1] [nM]	remaining at 0.5 h (in vitro [2]) [%]	remaining at 0.5 h (in vitro [3]) [%]	IC50 (SARS-CoV-2 3CL^pro) [nM]	other results
Cc1cncc(-n2c(=O)nc(N3Cc4ccccc4C3)n(Cc3cc(F)c(F)c(F)c3)c2=O)c1 [Compound 1, 6-(Isoindolin-2-yl)-3-(5-methylpyridin-3-yl)-1-(3,4,5-trifluorobenzyl)-1,3,5-triazine-2,4(1H,3H)-dione]	264	49	19	143	–
Cc1cncc(-n2c(=O)[nH]c(N3Cc4ccccc4C3)c(Cc3cc(F)c(F)c(F)c3)c2=O)c1 [Compound 2, 6-(Isoindolin-2-yl)-3-(5-methylpyridin-3-yl)-5-(3,4,5-trifluorobenzyl)-pyrimidine-2,4(1H,3H)-dione]	1490	45	36	335	–
Cc1cncc(-n2c(=O)c(Cc3cc(F)c(F)c(F)c3)c(N3Cc4ccccc4C3)n(C)c2=O)c1 [Compound 3, 6-(Isoindolin-2-yl)-1-methyl-3-(5-methylpyridin-3-yl)-5-(3,4,5-trifluorobenzyl)-pyrimidine-2,4(1H,3H)-dione]	191	1	1	179	–
Cc1cncc(-n2c(=O)c(Cc3cc(F)c(F)c(F)c3)c(N3Cc4ccccc4C3)n(CC#N)c2=O)c1 [Compound 4, 2-(6-(Isoindolin-2-yl)-3-(5-methylpyridin-3-yl)-2,4-dioxo-5-(3,4,5-trifluorobenzyl)-3,4-dihydropyrimidin-1(2H)-yl)-acetonitrile]	4.94	1	3	–	IC50 (SARS-CoV-2 3CL^pro; [11]): 0.76 nM
Cc1cncc(-n2c(=O)c(Cc3cc(F)c(F)c(F)c3)c(N3CCCC3)n(CC#N)c2=O)c1 [Compound 5, 2-(3-(5-Methylpyridin-3-yl)-2,4-dioxo-6-(pyrrolidin-1-yl)-5-(3,4,5-trifluorobenzyl)-3,4-dihydropyrimidin-1(2H)-yl)-acetonitrile]	20.4	4	11	11.8	–
Cc1cncc(-n2c(=O)c(Cc3cc(F)c(F)c(F)c3)c(N3CCC(C(F)(F)F)CC3)n(CC#N)c2=O)c1 [Compound 6, 2-(3-(5-Methylpyridin-3-yl)-2,4-dioxo-5-(3,4,5-trifluorobenzyl)-6-(4-(trifluoromethyl)-piperidin-1-yl)-3,4-dihydropyrimidin-1(2H)-yl)-acetonitrile]	9.41	13	18	1.51	–
Cc1cncc(-n2c(=O)c(Cc3cc(F)c(F)c(F)c3)c(N3CC4(CCOCC4)C3)n(CC#N)c2=O)c1 [Compound 7, 2-(3-(5-Methylpyridin-3-yl)-2,4-dioxo-6-(7-oxa-2-azaspiro[3.5]-nonan-2-yl)-5-(3,4,5-trifluorobenzyl)-3,4-dihydropyrimidin-1(2H)-yl)-acetonitrile]	41.9	58	77	14	–
Cc1cncc(-n2c(=O)c(Cc3cc(F)c(F)c(F)c3)c(N3CC4(C3)CC(F)(F)C4)n(CC#N)c2=O)c1 [Compound 8, 2-(6-(6,6-Difluoro-2-azaspiro[3.3]-heptan-2-yl)-3-(5-methylpyridin-3-yl)-2,4-dioxo-5-(3,4,5-trifluorobenzyl)-3,4-dihydropyrimidin-1(2H)-yl)-acetonitrile]	14.4	36	62	5.63	–
Cc1cncc(-n2c(=O)c(Cc3cc(F)c(F)c(F)c3)c(N3CC4(CCOC4)C3)n(CC#N)c2=O)c1 [Compound 9, 2-(3-(5-Methylpyridin-3-yl)-2,4-dioxo-6-(6-oxa-2-azaspiro[3.4]-octan-2-yl)-5-(3,4,5-trifluorobenzyl)-3,4-dihydropyrimidin-1(2H)-yl)-acetonitrile]	18.4	58	81	8.37	–
N#CCn1c(N2CC3(CCOC3)C2)c(Cc2cc(F)c(F)c(F)c2)c(=O)n(-c2cncc(Cl)c2)c1=O [Compound 10, 2-(3-(5-Chloropyridin-3-yl)-2,4-dioxo-6-(6-oxa-2-azaspiro[3.4]-octan-2-yl)-5-(3,4,5-trifluorobenzyl)-3,4-dihydropyrimidin-1(2H)-yl)-acetonitrile]	25.3	17	54	8.27	–
Cc1cncc(-n2c(=O)c(Cc3ccc(F)c(F)c3)c(N3CC4(CCOC4)C3)n(CC#N)c2=O)c1 [Compound 11, 2-(5-(3,4-Difluorobenzyl)-3-(5-methylpyridin-3-yl)-2,4-dioxo-6-(6-oxa-2-azaspiro[3.4]-octan-2-yl)-3,4-dihydropyrimidin-1(2H)-yl)-acetonitrile]	41.8	55	71	19.6	–
Cc1cncc(-n2c(=O)c(Cc3ccccc3)c(N3CC4(CCOC4)C3)n(CC#N)c2=O)c1 [Compound 12, 2-(5-Benzyl-3-(5-methylpyridin-3-yl)-2,4-dioxo-6-(6-oxa-2-azaspiro[3.4]-octan-2-yl)-3,4-dihydropyrimidin-1(2H)-yl)-acetonitrile]	117	70	70	99.6	–
N#CCn1c(N2CC3(CCOC3)C2)c(-c2ccccc2)c(=O)n(-c2cncc(Cl)c2)c1=O [Compound 13, 2-(3-(5-Chloropyridin-3-yl)-2,4-dioxo-5-phenyl-6-(6-oxa-2-azaspiro[3.4]-octan-2-yl)-3,4-dihydropyrimidin-1(2H)-yl)-acetonitrile]	23.1	55	58	7.16	–
N#CCn1c(N2CC3(CCOC3)C2)c(-c2cccc(Cl)c2)c(=O)n(-c2cncc(Cl)c2)c1=O [Compound 14, 2-(5-(3-Chlorophenyl)-3-(5-chloropyridin-3-yl)-2,4-dioxo-6-(6-oxa-2-azaspiro[3.4]-octan-2-yl)-3,4-dihydropyrimidin-1(2H)-yl)-acetonitrile]	1.57	49	33	–	improvement of activity by substituents on the S2 phenyl group (SARS-CoV-2 3CL^pro): more than 10 -fold; IC50 (SARS-CoV-2 3CL^pro; [11]): 0.403 nM
N#CCn1c(N2CC3(CCOC3)C2)c(-c2ccc(F)c(Cl)c2)c(=O)n(-c2cncc(Cl)c2)c1=O [Compound 15, 2-(5-(3-Chloro-4-fluorophenyl)-3-(5-chloropyridin-3-yl)-2,4-dioxo-6-(6-oxa-2-azaspiro[3.4]-octan-2-yl)-3,4-dihydropyrimidin-1(2H)-yl)-acetonitrile]	4.48	55	58	0.493	improvement of activity by substituents on the S2 phenyl group (SARS-CoV-2 3CL^pro): more than 10 -fold
N#CCn1c(N2CC(F)(F)C2)c(-c2ccc(F)c(Cl)c2)c(=O)n(-c2cncc(Cl)c2)c1=O [Compound 16, 2-(5-(3-Chloro-4-fluorophenyl)-3-(5-chloropyridin-3-yl)-6-(3,3-difluoroazetidin-1-yl)-2,4-dioxo-3,4-dihydropyrimidin-1(2H)-yl)-acetonitrile]	7.79	89	83	2.36	–
N#CCn1c(N2CC(O)(C(F)(F)F)C2)c(-c2ccc(F)c(Cl)c2)c(=O)n(-c2cncc(Cl)c2)c1=O [Compound 18, 2-(5-(3-Chloro-4-fluorophenyl)-3-(5-chloropyridin-3-yl)-6-(3-hydroxy-3-(trifluoromethyl)-azetidin-1-yl)-2,4-dioxo-3,4-dihydropyrimidin-1(2H)-yl)-acetonitrile]	3.82	103	99	0.391	clearance (in vivo [4]): 19.7 mL/min/kg; half-life (in vivo [4]): 3.48 h; clearance (in vivo [5]; iv): 6.69 mL/min/kg; half-life (in vivo [5]; iv): 6.89 h; bioavailability (in vivo [5]; po, 1 umol/kg): 38%; Papp A→B (in vitro [6]): 1.26 ×10⁻⁶ cm/s; clearance (in vivo [7]): 4.59 mL/min/kg; half-life (in vivo [7]): 8.74 h
CC(C)(C)[C@H](NC(=O)C(F)(F)F)C(=O)N1C[C@H]2[C@@H]([C@H]1C(=O)N[C@H](C#N)C[C@@H]1CCNC1=O)C2(C)C [nirmatrelvir, reference compound]	–	–	–	–	Papp A→B (in vitro [6]): 0.615 ×10⁻⁶ cm/s; Papp B→A (in vitro [6]): 1.42 ×10⁻⁶ cm/s; EC50 (SARS-CoV-2): 47.5 ± 12.3 nM; EC90 [8]: 45.1 ± 21.2 nM; EC50 (HCoV-OC43): 58.8 ± 12.2 nM; P-gp substrate assessment (P-gp [9]): P-gp substrates; EC50 (HCoV-229E): 696 ± 210 nM; Papp A→B (P-gp [10]): 0.908 ×10⁻⁶ cm/s; Papp B→A (P-gp [10]): 9.39 ×10⁻⁶ cm/s
